Read-outs that look alike come from different tables or passages of the source. Bounds are passed on as bounds.

This passage reports IC50 and EC50 results from US20220153732A1, “PROTEIN SECRETION INHIBITORS” (KEZAR LIFE SCIENCES, priority 2019, published 2022).

Holding throughout (assay type): cell-based
Assay [1] has as its system PD1-ss+10aa/Gaussia Luciferase. As to the kind of experiment: Dox-Induced PD1-ss-Gluc Assay. The note with it: 293FRT/TO cells, read-out: 24 hr Dox Inducible PD1ssGluc 293FRT/TO: Mean IC50. The procedure, abridged: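 Compounds, diluted in DMSO/media with doxycycline, were added to cells plated a day earlier and kept at 37° C under 5% CO2. The cells stably express a Gaussia luciferase construct fused to PD1-ss+10aa, induced via the T-REx system. Unassigned stereochemistry means mixture data.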

Assay [2] deals with HER3-ss+4aa/Gaussia Luciferase. As to the kind of experiment: Dox-Induced Her3-ss-Gluc Assay. The note with it: 293FRT/TO cells, read-out: 24 hr Dox Inducible Her3(ss + 4)Gluc 293FRT/TO: Mean IC50. The procedure, abridged:
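Compounds, diluted in DMSO/media containing doxycycline, were incubated at 37° C., 5% CO2 with cells seeded one day earlier. The cells stably express HER3-ss+4aa/Gaussia luciferase under T-REx control. Where no stereochemistry is shown, data refer to the mixture of stereoisomers.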

For assay [3], the system named is human multiple myeloma cell line U266B1. As to the kind of experiment: U266 Cell Viability Assay. As to conditions: U-266, 48 hr, U266B1 cells, Celltiter-Glo, read-out: 48 hr U266 Viability Celltiter-Glo: Mean EC50. The procedure, abridged:
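Viability measured by CellTiter-Glo luciferase signal after 48 h compound exposure (37 °C, 5% CO2) of U266B1 cells in 384-well format. Where stereochemistry is not shown, data refer to the stereoisomer mixture.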
Background: In ATP-based viability assays light output follows the ATP content of the culture.

The test system of assay [4] is IL-2-FL/Gaussia Luciferase. As to the kind of experiment: Dox Induced IL2-FL-Gluc Assay. As to conditions: 293FRT/TO cells, read-out: 24 hr Dox Inducible IL2FLGIuc 293FRT/TO: Mean IC50. In short, it runs like this: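 Compounds were added together with doxycycline in DMSO/media and incubated at 37° C., 5% CO2. The cells were a stably selected line carrying IL-2-FL/Gaussia luciferase under T-REx inducible control. Structures drawn without stereochemistry were tested as stereoisomer mixtures.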

Assay [5] deals with human multiple myeloma cell line NCI-H929. As to the kind of experiment: H929 Cell Viability Assay. As to conditions: 48 hr, NCI-H929 cells, Celltiter-Glo, read-out: 48 hr H929 Viability Celltiter-Glo: Mean EC50. The procedure: Plates were incubated at 37° C., 5% CO2 for 48 hours. After 48 hours, Celltiter-Glo® (Promega) was added to each well and luciferase signal was quantified using Tecan Infinite M1000 Pro for cell viability determination.
For chemical structures that include one or more stereoisomers, but are illustrated without indicating stereochemistry, the assay data refers to a mixture of stereoisomers.

For assay [6], the system named is TNFα-FL/Gaussia Luciferase. As to the kind of experiment: Dox Induced TNFα-FL-Gluc Assay. As to conditions: 293FRT/TO cells, read-out: 24 hr Dox Inducible TNFaFLGluc 293FRT/TO: Mean IC50. In short, it runs like this:
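Compounds were added in doxycycline-containing DMSO/media to cells plated the previous day and incubated at 37° C under 5% CO2. These cells stably express a TNFα-FL/Gaussia luciferase cDNA whose expression is under T-REx (Dox-inducible) control, selected with Hygromycin and Blasticidin.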

Where [7] appears, read: 24 hr doxycycline induction, Gaussia luciferase signal.

Broadly, the EC50 is the concentration giving half of the maximal effect. As for `COc1cnccc1Cn1cccc1C(=O)Nc1nc(C(C)(C)OC(C)C)cs1` [Compound A211, N-(4-(2-isopropoxypropan-2-yl)thiazol-2-yl)-1-((3-methoxypyridin-4-yl)methyl)-1H-pyrrole-2-carboxamide], the IC50 in assay [1] (setting [7]) was 10 µM; in assay [2] (setting [7]), above 25 µM; in assay [4] (setting [7]), 8.31 µM; in assay [6] (setting [7]), above 25 µM. The EC50 in assay [3] and in assay [5] was above 25 µM throughout.
Take `CC(OC(C)(C)c1csc(NC(=O)c2cccn2Cc2ccncc2)n1)c1ccccc1` (stereo not drawn) [Compound A3, N-(4-(2-(1-phenylethoxy)propan-2-yl)thiazol-2-yl)-1-(pyridin-4-ylmethyl)-1H-pyrrole-2-carboxamide]: the IC50 in assay [1] (setting [7]) is 0.036 µM; in assay [2] (setting [7]), 0.099 µM; in assay [4] (setting [7]), 0.144 µM; in assay [6] (setting [7]) it was 0.58 µM. For the same compound, the EC50 was above 25 µM in assay [3] and 2.91 µM in assay [5].
With `O=C(Nc1nc([C@H]2C[C@@H](OC3CCCCC3)CN2c2ccccc2)cs1)c1cccn1Cc1ccncc1` [Compound A354], the IC50 in assay [1] (24 hr, doxycycline-induced) turned out to be 0.006 µM; in assay [2] (24 hr, doxycycline-induced), 0.016 µM; in assay [4] (24 hr, doxycycline-induced), 0.021 µM; in assay [6] (24 hr, doxycycline-induced), 0.054 µM. In addition, the EC50 in assay [3] is above 25 µM; in assay [5], 0.901 µM.
As for `COc1cc(Cn2cccc2C(=O)Nc2nc(C(C)(C)OC(C)C)cs2)ccn1` [Compound A125, N-(4-(2-isopropoxypropan-2-yl)thiazol-2-yl)-1-((2-methoxypyridin-4-yl)methyl)-1H-pyrrole-2-carboxamide], the IC50 in assay [1] (setting [7]), in assay [2] (setting [7]), in assay [4] (setting [7]) and in assay [6] (setting [7]) was above 25 µM in each case. The EC50 in assay [3] and in assay [5] was above 25 µM each time.
As to `CC(C)OC(C)(C)c1csc(NC(=O)c2cccn2Cc2ccnc3ccccc23)n1` [Compound A90, N-(4-(2-isopropoxypropan-2-yl)thiazol-2-yl)-1-(quinolin-4-ylmethyl)-1H-pyrrole-2-carboxamide], the IC50 in assay [1] (setting [7]) was 10 µM; in assay [2] (setting [7]) it was above 25 µM; in assay [4] (setting [7]), above 25 µM; in assay [6] (setting [7]) it was above 25 µM. Also, the EC50 is above 25 µM in assay [3] and 16.9 µM in assay [5].
As to `O=C(Nc1nc(/C=C/c2ccc([N+](=O)[O-])cc2)cs1)c1cccn1Cc1ccncc1` [Compound A227], the IC50 in assay [1] (setting [7]) stood at 0.053 µM; in assay [2] (setting [7]) it was 0.379 µM; in assay [4] (setting [7]), 0.625 µM; in assay [6] (setting [7]), 1.9 µM. For the same compound, the figures for the EC50 in assay [3] and in assay [5] were above 21.4 µM and 8.95 µM, respectively.
With `O=C(Nc1nc([C@H]2C[C@@H](O)CN2c2ccccc2)cs1)c1cccn1Cc1ccncc1` [Compound A321], the IC50 in assay [1] (24 hr, doxycycline-induced) turned out to be 0.215 µM; in assay [2] (24 hr, doxycycline-induced) it was 0.902 µM; in assay [4] (24 hr, doxycycline-induced), 0.948 µM; in assay [6] (24 hr, doxycycline-induced), 4.17 µM. For the same compound, the EC50 was above 25 µM in assay [3] and 9.73 µM in assay [5].
Regarding `CCOC(C)(C)c1csc(NC(=O)c2cccn2Cc2ccncc2)n1` [Compound A27, N-(4-(2-ethoxypropan-2-yl)thiazol-2-yl)-1-(pyridin-4-ylmethyl)-1H-pyrrole-2-carboxamide], the IC50 in assay [1] (setting [7]) came to 0.445 µM; in assay [2] (setting [7]), 0.822 µM; in assay [4] (setting [7]), 0.32 µM; in assay [6] (setting [7]), 9.53 µM. Besides, the EC50 in assay [3] and in assay [5] was above 25 µM throughout.
With `O=C(Nc1nc([C@@H]2CCN(Cc3ccccc3)C2)cs1)c1cccn1Cc1ccncc1` [Compound A291], the IC50 in assay [1] (setting [7]) is 0.918 µM; in assay [2] (setting [7]), 5.28 µM; in assay [4] (setting [7]) it was 6.72 µM; in assay [6] (setting [7]), above 25 µM. The EC50 in assay [3] was 22.5 µM; in assay [5] it was above 25 µM.
Turning to `CC(=O)Nc1ccc(/C=C/c2csc(NC(=O)c3cccn3Cc3ccncc3)n2)cc1` [Compound A223, N-(4-(4-acetamidostyryl)thiazol-2-yl)-1-(pyridin-4-ylmethyl)-1H-pyrrole-2-carboxamide], the IC50 in assay [1] (setting [7]) is 0.513 µM; in assay [2] (setting [7]) it was 3.12 µM; in assay [4] (setting [7]), 8.04 µM; in assay [6] (setting [7]), above 25 µM. Besides, the EC50 was above 25 µM in assay [3] and 22.3 µM in assay [5].
In the case of `CC(C)(/C=C/c1ccccc1)c1csc(NC(=O)c2cccn2Cc2ccncc2)n1` [Compound A293, N-(4-(2-methyl-4-phenylbut-3-en-2-yl)thiazol-2-yl)-1-(pyridin-4-ylmethyl)-1H-pyrrole-2-carboxamide], the IC50 in assay [1] (24 hr, doxycycline-induced) was 0.367 µM; in assay [2] (24 hr, doxycycline-induced), 0.632 µM; in assay [4] (24 hr, doxycycline-induced), 0.619 µM; in assay [6] (24 hr, doxycycline-induced), 3.65 µM. Also, the EC50 in assay [3] is above 25 µM; in assay [5], 11.4 µM.
As to `Cc1ccc(C(=O)Nc2nc(C(C)(C)OC(C)C)cs2)n1Cc1ccncc1` [Compound A76, N-(4-(2-isopropoxypropan-2-yl)thiazol-2-yl)-5-methyl-1-(pyridin-4-ylmethyl)-1H-pyrrole-2-carboxamide], the IC50 was 2.73 µM in assay [1] (setting [7]), 12.5 µM in assay [2] (setting [7]), 3.99 µM in assay [4] (setting [7]) and above 25 µM in assay [6] (setting [7]). In addition, the EC50 in assay [3] and in assay [5] was above 25 µM in each case.
Turning to `CCc1nc(NC(=O)c2cccn2Cc2ccccc2Cl)sc1C` [Compound B7, 1-(2-chlorobenzyl)-N-(4-ethyl-5-methylthiazol-2-yl)-1H-pyrrole-2-carboxamide], the IC50 in assay [1] (24 hr, doxycycline-induced) is 9.07 µM; in assay [2] (24 hr, doxycycline-induced), 20 µM; in assay [4] (24 hr, doxycycline-induced), 24.3 µM; in assay [6] (24 hr, doxycycline-induced), above 25 µM. Further, the EC50 in assay [3] and in assay [5] was above 25 µM in each case.
Turning to `CC(C)OC(C)c1csc(NC(=O)c2cccn2Cc2ccncc2)n1` (stereo not drawn) [Compound A28, N-(4-(1-isopropoxyethyl)thiazol-2-yl)-1-(pyridin-4-ylmethyl)-1H-pyrrole-2-carboxamide], the IC50 in assay [1] (setting [7]) turned out to be 0.462 µM; in assay [2] (setting [7]), 0.752 µM; in assay [4] (setting [7]), 0.401 µM; in assay [6] (setting [7]), 3.95 µM. Also, the EC50 in assay [3] and in assay [5] was above 25 µM each time.
`C[C@@H](OC(C)(C)c1csc(NC(=O)c2cccn2Cc2ccncc2)n1)c1ccccc1` [Compound A18, (R)-N-(4-(2-(1-phenylethoxy)propan-2-yl)thiazol-2-yl)-1-(pyridin-4-ylmethyl)-1H-pyrrole-2-carboxamide]: the IC50 in assay [1] (setting [7]) came to 0.226 µM; in assay [2] (setting [7]) it was 0.461 µM; in assay [4] (setting [7]), 0.718 µM; in assay [6] (setting [7]) it was 1.35 µM. The EC50 in assay [3] is above 25 µM; in assay [5], 15.1 µM.
`O=C(Nc1nc([C@H]2C[C@@H](c3ccccn3)C2)cs1)c1cccn1Cc1ccncc1` [Compound A349]: the IC50 was found to be 0.364 µM in assay [1] (24 hr, doxycycline-induced); 1.26 µM in assay [2] (24 hr, doxycycline-induced); 1.7 µM in assay [4] (24 hr, doxycycline-induced); 6.62 µM in assay [6] (24 hr, doxycycline-induced). Besides, the values for the EC50 in assay [3] and in assay [5] were above 25 µM and 12.5 µM, respectively.
With `CC(c1ccccc1)c1csc(NC(=O)c2cccn2Cc2ccncc2)n1` (stereo not drawn) [Compound A21], the IC50 in assay [1] (setting [7]) was determined as 0.259 µM; in assay [2] (setting [7]) it was 0.59 µM; in assay [4] (setting [7]), 0.502 µM; in assay [6] (setting [7]) it was 3.68 µM. The EC50 in assay [3] and in assay [5] was above 25 µM in each case.
With `Cc1nc(NC(=O)c2cccn2Cc2ccncc2)sc1C` [Compound A58, N-(4,5-dimethylthiazol-2-yl)-1-(pyridin-4-ylmethyl)-1H-pyrrole-2-carboxamide], the IC50 in assay [1] (setting [7]) was 1.5 µM; in assay [2] (setting [7]), 3.53 µM; in assay [4] (setting [7]), 7.06 µM; in assay [6] (setting [7]) it was above 25 µM. The concentration for a half-maximal effect (EC50) in assay [3] and in assay [5] was above 25 µM throughout.
